This note sets out measurements from US20240132431A1, “METHOD FOR ALKYLATING ACIDIC FUNCTIONAL GROUP” (Chugai Seiyaku Kabushiki Kaisha, priority 2021, published 2024).

The target in the test is T1, Bcl-2 protein (Recombinant Human Bcl-2 Protein) (Homo sapiens, UniProt P10415).
T1 construct: purchased Novus NBP2-34889
The test can be described thus: Binding evaluation of mixture library compounds to Bcl-2 using AS-MS (affinity selection mass spectrometry). Conditions: for ASMS ratio (%) n = 1 / ASMS ratio (%) n = 2: ASMS Ratio(%)=(A−C)/B×100; for ASMS ratio (%) n = 1: replicate n = 1; for ASMS ratio (%) n = 2: replicate n = 2. Summed up: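 Pooled library of ~1200 compounds ([…] each, final) incubated with recombinant human Bcl-2 (20 μM final) in Tris-HCl pH 7.4, NaCl, Tween-20, DTT buffer, dark, 23° C., 1 h. Bound fraction recovered by SEC spin column, organic extraction, reversed-phase LC/MS. ASMS Ratio (%) = (A−C)/B×100 versus protein-free standard and SEC blank.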

The mark [1] stands for this setting: AS-MS, mixture of 1200 compounds, Bcl-2.
[2] abbreviates: AS-MS on the mixture of 1200 library compounds.

T1 sequence (P10415 whole entry): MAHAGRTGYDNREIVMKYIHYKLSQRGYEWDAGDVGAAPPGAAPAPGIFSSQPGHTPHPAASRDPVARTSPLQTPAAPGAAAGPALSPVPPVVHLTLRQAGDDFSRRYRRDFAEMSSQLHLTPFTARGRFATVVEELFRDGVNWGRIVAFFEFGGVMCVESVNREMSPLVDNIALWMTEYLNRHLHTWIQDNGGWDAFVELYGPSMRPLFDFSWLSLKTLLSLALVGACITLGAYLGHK

Regarding “6-[4-[3-tert-Butyl-5-(5-ethoxypyridin-3-yl)benzoyl]piperazin-1-yl]-N-propylpyridazine-3-carboxamide [B1M061-01]”, under setting [1], the “ASMS ratio (%) n = 1” value was −3.3% and the “ASMS ratio (%) n = 2” value was −13.1%.
`CCOc1cccc(-c2cc(CN3CCN(c4ccc(C(=O)NCC56CC7CC(CC(C7)C5)C6)cc4)CC3)cc(OC(F)(F)F)c2)c1` [B1A063-01, N-(1-Adamantylmethyl)-4-[4-[[3-(3-ethoxyphenyl)-5-(trifluoromethoxy)phenyl]methyl]piperazin-1-yl]benzamide]: under setting [1], the “ASMS ratio (%) n = 1” value was −1.0% and the “ASMS ratio (%) n = 2” value is reported as −11.0%.
Consider `CCOc1cncc(-c2cc(OC)c(CN3CCN(c4ccc(C(=O)NCC56CC7CC(CC(C7)C5)C6)cc4)CC3)c(OC)c2)c1` [B1A060-01, N-(1-Adamantylmethyl)-4-[4-[[4-(5-ethoxypyridin-3-yl)-2,6-dimethoxyphenyl]methyl]piperazin-1-yl]benzamide], for which the “ASMS ratio (%) n = 1” value under setting [1] amounted to 0.0%.
In the case of `CCOc1cncc(-c2ccc(C(=O)N3CCN(c4ccc(C(=O)NCC56CC7CC(CC(C7)C5)C6)nn4)CC3)cc2C)c1` [B1A004-01, N-(1-Adamantylmethyl)-6-[4-[4-(5-ethoxypyridin-3-yl)-3-methylbenzoyl]piperazin-1-yl]pyridazine-3-carboxamide], under setting [1], the “ASMS ratio (%) n = 1” value is −6.2% and the “ASMS ratio (%) n = 2” value is listed as 2.6%.
Take `CCOc1cncc(C#Cc2cc(C(=O)N3CCN(c4ccc(C(=O)N(CC)CC)nn4)CC3)cc(C(F)(F)F)c2)c1` [B4J020-01, 6-[4-[3-[2-(5-Ethoxypyridin-3-yl)ethynyl]-5-(trifluoromethyl)benzoyl]piperazin-1-yl]-N,N-diethylpyridazine-3-carboxamide]: under setting [2], the “ASMS ratio (%) n = 1” value was 0.0% and the “ASMS ratio (%) n = 2” value was 0.0%.
For the compound `CCOc1cncc(-c2ccc(C(=O)N3CCN(c4ccc(C(=O)NS(=O)(=O)c5ccc(NCCSc6ccccc6)c(C(F)(F)F)c5)cc4)CC3)c3ccccc23)c1` [B2R036-01, 4-[4-[4-(5-Ethoxypyridin-3-yl)naphthalene-1-carbonyl]piperazin-1-yl]-N-[4-(2-phenylsulfanylethylamino)-3-(trifluoromethyl)phenyl]sulfonylbenzamide], the “ASMS ratio (%)” value is, setting by setting: (n = 1) 3.2%; (n = 2) −0.8%.
On to `CCOc1cccc(-c2ccc(C(=O)N3CCN(c4ccc(C(=O)NS(=O)(=O)c5ccc(NCCSc6ccccc6)c([N+](=O)[O-])c5)nn4)CC3)cc2C)c1` [B2Q003-01, 6-[4-[4-(3-Ethoxyphenyl)-3-methylbenzoyl]piperazin-1-yl]-N-[3-nitro-4-(2-phenylsulfanylethylamino)phenyl]sulfonylpyridazine-3-carboxamide], for which, where the note is “AS-MS, mixture library, Bcl-2”, the “ASMS ratio (%) n = 1” value is given as 8.2% and the “ASMS ratio (%) n = 2” value is listed as 6.9%.
With `CCOc1cccc(-c2csc(C(=O)N3CCN(c4ccc(C(=O)NCC56CC7CC(CC(C7)C5)C6)nn4)CC3)c2)c1` [B1A001-01, N-(1-Adamantylmethyl)-6-[4-[4-(3-ethoxyphenyl)thiophene-2-carbonyl]piperazin-1-yl]pyridazine-3-carboxamide], under setting [1], the “ASMS ratio (%) n = 1” value stood at 17.6% and the “ASMS ratio (%) n = 2” value is on record as −0.7%.
Take `CCOc1cccc(-c2ccc(C(=O)N3CCN(c4ccc(C(=O)NCC56CC7CC(CC(C7)C5)C6)cc4)CC3)c3ccccc23)c1` [B1A035-01, N-(1-Adamantylmethyl)-4-[4-[4-(3-ethoxyphenyl)naphthalene-1-carbonyl]piperazin-1-yl]benzamide]: under setting [1], the “ASMS ratio (%) n = 1” value was found to be 14.9% and the “ASMS ratio (%) n = 2” value is listed as −7.0%.
For the compound `CCOc1cncc(-c2cc(CN3CCN(c4ccc(C(=O)NS(=O)(=O)c5ccc(NCCSc6ccccc6)c(C(F)(F)F)c5)nn4)CC3)cc(OCC)c2)c1` [B2R082-01, 6-[4-[[3-Ethoxy-5-(5-ethoxypyridin-3-yl)phenyl]methyl]piperazin-1-yl]-N-[4-(2-phenylsulfanylethylamino)-3-(trifluoromethyl)phenyl]sulfonylpyridazine-3-carboxamide], the “ASMS ratio (%)” value is reported as 0.0% (n = 1) and 0.0% (n = 2).
As to `CCOc1cccc(-c2ccc(C(C)N3CCN(c4ccc(C(=O)NCC56CC7CC(CC(C7)C5)C6)cc4)CC3)c(F)c2)c1` (centres unmarked) [B1A099-01, N-(1-Adamantylmethyl)-4-[4-[1-[4-(3-ethoxyphenyl)-2-fluorophenyl]ethyl]piperazin-1-yl]benzamide], under setting [1], the “ASMS ratio (%) n = 1” value was 0.9% and the “ASMS ratio (%) n = 2” value is −0.9%.
`CCOc1cncc(-c2cc(CN3CCN(c4ccc(C(=O)NS(=O)(=O)C(C)(C)C)cc4)CC3)cc(OCC)c2)c1` [B2L056-01]: the “ASMS ratio (%)” value stood at 0.0% (n = 1) and 0.0% (n = 2).
`CCOc1cccc(-c2ccc(CN3CCN(c4ccc(C(=O)NS(=O)(=O)c5ccc(NCCSc6ccccc6)c(C(F)(F)F)c5)cc4)CC3)c(CC)c2)c1` [B2R049-01, 4-[4-[[4-(3-Ethoxyphenyl)-2-ethylphenyl]methyl]piperazin-1-yl]-N-[4-(2-phenylsulfanylethylamino)-3-(trifluoromethyl)phenyl]sulfonylbenzamide]: the “ASMS ratio (%)” value was 7.5% (n = 1) and −5.5% (n = 2).
Take `CCOc1cccc(-c2cc(C(=O)N3CCN(c4ccc(C(=O)N(CC)CC)cc4)CC3)cc(C(F)(F)F)c2)c1` [B4J039-01, 4-[4-[3-(3-Ethoxyphenyl)-5-(trifluoromethyl)benzoyl]piperazin-1-yl]-N,N-diethylbenzamide]: under setting [2], the “ASMS ratio (%) n = 1” value is recorded as 2.2% and the “ASMS ratio (%) n = 2” value came out at 0.1%.
Consider `CCOc1cccc(-c2csc(CN3CCN(c4ccc(C(=O)NS(=O)(=O)CCC(F)(F)F)nn4)CC3)c2)c1` [B2N093-01, 6-[4-[[4-(3-Ethoxyphenyl)thiophen-2-yl]methyl]piperazin-1-yl]-N-(3,3,3-trifluoropropylsulfonyl)pyridazine-3-carboxamide], for which the “ASMS ratio (%)” value (n = 1) is 0.0%.
`CCOc1cncc(C#Cc2cc(C(=O)N3CCN(c4ccc(C(=O)NS(=O)(=O)CCC(F)(F)F)nn4)CC3)cc(C(F)(F)F)c2)c1` [B2N020-01, 6-[4-[3-[2-(5-Ethoxypyridin-3-yl)ethynyl]-5-(trifluoromethyl)benzoyl]piperazin-1-yl]-N-(3,3,3-trifluoropropylsulfonyl)pyridazine-3-carboxamide]: the “ASMS ratio (%)” value by setting is: (n = 1) 0.0%; (n = 2) 0.0%.
Turning to `CCOc1cccc(-c2cc(OC)c(CN3CCN(c4ccc(C(=O)NS(=O)(=O)c5ccc(NCCSc6ccccc6)c([N+](=O)[O-])c5)cc4)CC3)c(OC)c2)c1` [B2Q059-01, 4-[4-[[4-(3-Ethoxyphenyl)-2,6-dimethoxyphenyl]methyl]piperazin-1-yl]-N-[3-nitro-4-(2-phenylsulfanylethylamino)phenyl]sulfonylbenzamide], under “AS-MS, mixture library, Bcl-2”, the “ASMS ratio (%) n = 1” value was 9.8% and the “ASMS ratio (%) n = 2” value was 7.0%.
In the case of `CCOc1cncc(-c2cc(C(=O)N3CCN(c4ccc(C(=O)NS(=O)(=O)c5ccc(NCCSc6ccccc6)c([N+](=O)[O-])c5)cc4)CC3)cc(C(C)(C)C)c2)c1` [B2Q038-01, 4-[4-[3-tert-Butyl-5-(5-ethoxypyridin-3-yl)benzoyl]piperazin-1-yl]-N-[3-nitro-4-(2-phenylsulfanylethylamino)phenyl]sulfonylbenzamide], where the note is “AS-MS, mixture library, Bcl-2”, the “ASMS ratio (%) n = 1” value is reported as 3.3% and the “ASMS ratio (%) n = 2” value is 0.4%.
Regarding `CCOc1cccc(-c2cc(C(=O)N3CCN(c4ccc(C(=O)NCC56CC7CC(CC(C7)C5)C6)cc4)CC3)cc(C(F)(F)F)c2)c1` [B1A039-01, N-(1-Adamantylmethyl)-4-[4-[3-(3-ethoxyphenyl)-5-(trifluoromethyl)benzoyl]piperazin-1-yl]benzamide], under setting [1], the “ASMS ratio (%) n = 1” value came out at 6.3% and the “ASMS ratio (%) n = 2” value was −8.4%.
As to `CCOc1cccc(-c2cnn(-c3cc(C(=O)N4CCN(c5ccc(C(=O)NCC67CC8CC(CC(C8)C6)C7)nn5)CC4)cc(C(F)(F)F)c3)c2)c1` [B1A021-01, N-(1-Adamantylmethyl)-6-[4-[3-[4-(3-ethoxyphenyl)pyrazol-1-yl]-5-(trifluoromethyl)benzoyl]piperazin-1-yl]pyridazine-3-carboxamide], under setting [1], the “ASMS ratio (%) n = 1” value is given as −1.3% and the “ASMS ratio (%) n = 2” value is reported as −3.7%.
As for `CCOc1cccc(-c2ccc(CN3CCN(c4ccc(C(=O)NCC(F)(F)F)cc4)CC3)cc2C)c1` [B1K047-01], under setting [1], the “ASMS ratio (%) n = 1” value came out at 3.3% and the “ASMS ratio (%) n = 2” value came to 0.5%.
As to `CCOc1cncc(-c2cc(CN3CCN(c4ccc(C(=O)NS(=O)(=O)c5ccc(NCCSc6ccccc6)c(C(F)(F)F)c5)nn4)CC3)cc(OC(F)(F)F)c2)c1` [B2R090-01, 6-[4-[[3-(5-Ethoxypyridin-3-yl)-5-(trifluoromethoxy)phenyl]methyl]piperazin-1-yl]-N-[4-(2-phenylsulfanylethylamino)-3-(trifluoromethyl)phenyl]sulfonylpyridazine-3-carboxamide], the “ASMS ratio (%)” value (n = 1) was determined as 22.4% and the “ASMS ratio (%)” value (n = 2) is given as 5.3%.
As to `CCOc1cccc(C#Cc2cc(C(=O)N3CCN(c4ccc(C(=O)NS(=O)(=O)c5ccc(NCCSc6ccccc6)c([N+](=O)[O-])c5)cc4)CC3)cc(C(F)(F)F)c2)c1` [B2Q041-01, 4-[4-[3-[2-(3-Ethoxyphenyl)ethynyl]-5-(trifluoromethyl)benzoyl]piperazin-1-yl]-N-[3-nitro-4-(2-phenylsulfanylethylamino)phenyl]sulfonylbenzamide], under “AS-MS, mixture library, Bcl-2”, the “ASMS ratio (%) n = 1” value is listed as 2.6% and the “ASMS ratio (%) n = 2” value is recorded as 0.2%.
